Measurements: patent publication US8633168B2, “Inhibitors of S-adenosyl-L-methionine decarboxylase” (Genzyme Corporation, priority 2007, dated 2014)
Like-named read-outs stand apart in the source and are kept apart here.

How the values were obtained:
[1] = Hepatocyte stability, human; format: in vitro ADME; details: for Hepatocyte stability (CL) human: Table 2; for CLint scaled: hepatocytes, Example 12 chart
Description: (§1) Liver microsomes and hepatocytes represent an in vitro surrogate for assessing the phase I/II metabolic stability of new discovery leads. Following the incubation of the compounds with microsomes or hepatocytes of different species (e.g., human, rat, dog, monkey, mouse), the samples were transferred to 96 well plates for quantitation using LC/MS/MS. The % of compound remaining was measured and used to calculate clearance and % hepatic blood flow.

[2] = Microsomal stability, rat; format: in vitro ADME; details: for Microsomal stability (CL) rat: Table 2; for CLint scaled: Example 12 chart
Description: as §1

T. b. brucei = assay: Cell-based screening against T. b. brucei; parameters: species or system Trypanosoma brucei brucei; details: for IC50: Screening Data, two values per compound
Description: The bloodstream form trypomastigotes of the three strains are maintained according to standard protocols established at STI.
Drug sensitivity assays are performed in sterile 96-well microtiter plates, with or without serial drug dilutions. The highest concentration for the test compounds is 90 μg/ml. Each drug is tested in duplicate. After 72 hours of incubation the plates are inspected microscopically to assure growth of the controls to determine the minimum inhibitory concentration (MIC), i.e., the lowest drug concentration at which no trypanosomes with normal morphology and motility can be seen compared to control wells. Cell viability is measured by Alamar blue staining and IC50 values are calculated.
Active compounds (IC50<0.2 μg/ml) are tested against the Trypanosoma brucei gambiense STIB 930 and the multi-drug resistant T. b. brucei STIB 950 following the same protocol as described above.
This example provides data relating to the biological screening results. MDL 73811 and selected new compounds 1-7 were tested against a variety of cell-based organisms and enzymes and the IC50 measured. In vitro ADME profiles were also obtained. Solubility, permeability, microsomal/hepatocyte stability, cychrome P450 inhibition and plasma protein binding characteristics were probed for each of the compounds. The methodology for these tests are described in previous paragraphs. The results are summarized in the following 2 charts.

Schistosomes lavae = assay: Screening against Schistosomes, larvae; format: cell-based; details: Screening Data
Schistosomes adult = assay: Screening against Schistosomes, adult; format: cell-based; details: Screening Data
T. cruzi = assay: Cell-based screening against T. cruzi; details: Trypanosoma cruzi; Screening Data
T. brucei SAM DC = target: T1, T. brucei SAM DC (Trypanosoma brucei brucei, UniProt P50244); assay: SAMDC enzyme inhibition assay (14CO2 release from 14C-AdoMet); format: biochemical; details: Table 1; read-out: kinact/Ki^app against SAM DC enzyme by SW (converted)
T1 construct: made in house
T1 sequence (P50244 86-370 limits assumed): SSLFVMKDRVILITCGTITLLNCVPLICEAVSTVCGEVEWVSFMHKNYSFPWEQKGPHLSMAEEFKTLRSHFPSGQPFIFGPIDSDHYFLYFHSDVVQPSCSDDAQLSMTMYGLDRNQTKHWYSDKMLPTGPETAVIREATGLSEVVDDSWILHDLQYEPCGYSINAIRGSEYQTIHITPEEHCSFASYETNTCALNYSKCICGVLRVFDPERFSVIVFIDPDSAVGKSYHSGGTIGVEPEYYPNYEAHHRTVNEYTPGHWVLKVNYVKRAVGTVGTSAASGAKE
Description: Steady state kinetics were performed as described (Kinch, L. N., J. R. Scott, B. Ullman, and M. A. Phillips. “Cloning and Kinetic Characterization of the Trypanosoma Cruzi S-Adenosylmethionine Decarboxylase.” Mol Biochem Parasitol 101, no. 1-2 (1999): 1-11. Beswick, T. C., E. K. Willert, and M. A. Phillips. “Mechanisms of Allosteric Regulation of Trypanosoma Cruzi S-Adenosylmethionine Decarboxylase.” Biochemistry 45, no. 25 (2006): 7797-807.). This assay measures the amount of ^14CO2 elaborated by enzymatic cleavage of ^14C-AdoMet. Reactions were carried out in assay buffer (100 mM Hepes pH 8.0, 50 mM NaCl, and 1 mM DTT) using the AdoMetDC/AdoMetDC Prozyme complex at ^14C-AdoMet concentrations of 10-160 μM with saturating putrescine (5 mM) (Willert E K, Phillips M A, 2007. “Allosteric regulation of an essential trypanosome polyamine biosynthetic enzyme by a catalytically dead homolog”. Proc Natl Acad Sci USA 104: 8275-8280). The reaction components were added to a test tube on ice to a total final volume of 100 μl. The reaction was initiated by the addition of enzyme (1-4 μM for T. brucei SAM DC), and a piece of filter paper soaked in saturated barium hydroxide was hung on the side of the test tube, which was then capped with a rubber stopper. Reactions were incubated at 37° C. in a water bath for 5-40 minutes. The assay was stopped by the addition of 200 μl 6 M HCl. The quenched reaction was kept at 37° C. for at least 30 minutes to allow for evolution of the CO2 from the solution. The filter paper was then added to 5 ml of scintillation fluid and counted. Test compounds were assessed over a range of 4 concentrations. Kinetic and regression analysis were performed using GraphPad Prism™.
Purified, recombinant T. brucei SAM-decarboxylase and its prozyme are prepared and assayed in the laboratory of Dr. Phillips according to procedures from that lab. Kinch L N, Scott J R, Ullman B, Phillips M A, “Cloning and kinetic characterization of the Trypanosoma cruzi S-adenosylmethionine decarboxylase,” Mol Biochem Parasitol 101: 1-11. Willert E K, Fitzpatrick R, Phillips M A, 2007 (1999). Briefly, the assay employs ^14C-labelled S-adenosyl methionine (^14C-AdoMet). Reactions are carried out in buffer (100 mM Hepes pH 8.0, 50 mM NaCl, and 5 mM DTT) at ^14C-AdoMet concentrations of 10-160 μM with saturating putrescine (5 mM). The reaction components are added to a test tube on ice to a total final volume of 100 μl. The reaction is initiated by the addition of enzyme (1-4 μM for T. brucei SAM DC), and a piece of filter paper soaked in saturated barium hydroxide is hung on the side of the test tube, which is then capped with a rubber stopper. Reactions are incubated at 37° C. in a water bath for 5-40 minutes. The assay is stopped by the addition of 200 μl 6 M HCl. The quenched reaction is kept at 37° C. for at least 30 minutes to allow for evolution of the CO2 from the solution. The filter paper is then added to 5 ml of scintillation fluid and counted. Test compounds were assessed over a range of 4 concentrations. Kinetic and regression analysis are performed using GraphPad Prism.™ Results of this test are exemplified in FIG. 4.

[3] = Plasma protein binding (RED), mouse; format: in vitro ADME
Description: Rapid Equilibrium Dialysis device (RED) is a 96-well formatted dialysis with disposable inserts and Teflon base design providing short incubation time. The membrane in RED physically separates of bound and free drug. After 4 hr incubation at 37° C., drug concentrations at both plasma (e.g., human, rat, dog, monkey, mouse) and pH 7.4 PBS buffer sides was quantitated by LC/MS/MS and % bound drug in plasma was calculated.

[4] = plasma, pH 7.4, Example 12 chart, mouse

| Hepatocyte stability (CL) human [1] [mL/min/kg] | CLint scaled [1] [mL/min/kg] | Microsomal stability (CL) rat [2] [mL/min/kg] | CLint scaled ([2]; liver microsomes) [mL/min/kg] | IC50 (Schistosomes adult) [µM] | IC50 (T. cruzi) [µM] | kinact/KI (T. brucei SAM DC) [M⁻¹ s⁻¹] | Plasma protein binding (%) mouse ([3]; Table 2, mouse plasma) [%] | fraction unbound at 4 hr [3, 4] | logD (LogD) | Structure (SMILES) | IC50 (T. b. brucei) [µM] | IC50 (T. b. brucei; Trypanosoma brucei) [µM] | IC50 (Schistosomes lavae) [µM] | potency against T. b. brucei, fold greater than that of MDL73811 (T. b. brucei; vs MDL73811) [fold] | logD (LogD; Example 12 chart) | Plasma protein binding (%) mouse ([3]; Example 12 chart, mouse) [%] | fraction unbound at 4 hr ([3]; pH 7.4, Table 2, mouse plasma) | CLint scaled ([2]; microsomes) [mL/min/kg] | fraction unbound ([3]; pH 7.4, Table 2, mouse plasma) |
| --- | --- | --- | --- | --- | --- | --- | --- | --- | --- | --- | --- | --- | --- | --- | --- | --- | --- | --- | --- |
| <4.2 | < 1.7 | <11 | < 7.7 | > 10 | > 85 | 300 | 42.2 | 0.578 | – | CN(C/C=C\CN)C[C@H]1O[C@@H](n2cnc3c(N)nc(Cl)nc32)[C@H](O)[C@@H]1O [Compound 3] | 5.96 | 8.57 | > 10 | – | – | – | – | – | – |
| <4.2 | < 1.7 | <11 | < 7.7 | > 10 | > 85 | 3200 | 47.7 | 0.523 | -1.3 | CN(C/C=C\CN)C[C@H]1O[C@@H](n2cnc3c(N)ncnc32)[C@H](F)[C@@H]1O (stereo in doubt) [Compound 1] | – | > 14 | > 10 | – | – | – | – | – | – |

Continued, compound first:

| Structure (SMILES) | Hepatocyte stability (CL) human [1] [mL/min/kg] | CLint scaled [1] [mL/min/kg] | Microsomal stability (CL) rat [2] [mL/min/kg] | CLint scaled ([2]; liver microsomes) [mL/min/kg] | IC50 (Schistosomes adult) [µM] | IC50 (T. cruzi) [µM] | kinact/KI (T. brucei SAM DC) [M⁻¹ s⁻¹] | Plasma protein binding (%) mouse ([3]; Table 2, mouse plasma) [%] | fraction unbound at 4 hr [3, 4] | logD (LogD) | IC50 (T. b. brucei) [µM] | IC50 (T. b. brucei; Trypanosoma brucei) [µM] | IC50 (Schistosomes lavae) [µM] | potency against T. b. brucei, fold greater than that of MDL73811 (T. b. brucei; vs MDL73811) [fold] | logD (LogD; Example 12 chart) | Plasma protein binding (%) mouse ([3]; Example 12 chart, mouse) [%] | fraction unbound at 4 hr ([3]; pH 7.4, Table 2, mouse plasma) | CLint scaled ([2]; microsomes) [mL/min/kg] | fraction unbound ([3]; pH 7.4, Table 2, mouse plasma) |
| --- | --- | --- | --- | --- | --- | --- | --- | --- | --- | --- | --- | --- | --- | --- | --- | --- | --- | --- | --- |
| Cc1nc2c(N)ncnc2n1[C@@H]1O[C@H](CN(C)C/C=C\CN)[C@@H](O)[C@H]1O (stereo in doubt) [Compound 4] | <4.2 | < 1.7 | <11 | < 7.7 | > 10 | > 85 | 130000 | – | – | – | – | 0.027 | > 10 | 10 | −1.4 | 35.7 | 0.643 | – | – |
| CN(C/C=C\CN)CC1OC(n2cnc3c(N)ncnc32)C(O)C1O (stereo not shown) [MDL-73811, reference compound] | <4.2 | < 1.7 | <11 | – | > 10 | 19.4 | 24900 | – | – | – | 0.257 | 0.171 | > 10 | – | – | 69.8 | – | < 7.7 | 0.302 |
| CN(C/C=C\CN)C[C@H]1O[C@@H](n2cnc3c(N)ncnc32)[C@@H](F)[C@@H]1O [Compound 2] | <4.2 | < 1.7 | <11 | < 7.7 | > 10 | > 85 | 32700 | 37.2 | 0.628 | -1.2 | – | > 14 | > 10 | – | – | – | – | – | – |
